# Like-named read-outs stand apart in the source and are kept apart here.
# Key:
# [1] = aqueous solubility (LC/MS- or HPLC-based assay); format: physicochemical
# Excerpt: (§1) Furthermore, to profile the properties of the piperazinyl-4(1H)-quinolones, and to identify potential limitations, aqueous solubility and lipophilicity log D were experimentally determined via LC/MS-based assays as described by the Manetsch laboratory previously^8,10,31,32 (Tables 9-12). Encouragingly, the piperazinyl-4(1H)-quinolones were much more soluble than the previously described phenoxyethoxy-4(1H)-quinolone analogues.^19 As expected, the solubility of all compounds was affected by pH, with better solubility under more acidic conditions.
# (§2) In parallel to testing the compounds for in vitro antimalarial activity, a limited structure-property relationship (SPR) study focusing on log D and aqueous solubility was conducted to assess potential physiochemical liabilities (FIG. 22). […] For these reasons, physicochemical properties were not strongly considered as selection criteria for in vivo efficacy studies.
# [2] = lipophilicity log D at pH 7.4; format: physicochemical; details: octanol/water
# Excerpt: as §1, §2
# [3] = tested on: J774 mammalian cells; assay: cytotoxicity to J774 cells; format: cell-based; details: Mus musculus
# Description: This allowed a simplified method for comparing the different assays being simultaneously run. Additionally, each compound was also tested for cytotoxicity using mammalian J774 cell lines in a 96-well plate format.^12-14, 16
# [4] = tested on: malarial strain W2 (pyrimethamine and chloroquine-resistant); assay: in vitro antimalarial activity against multidrug resistant strain W2; format: cell-based, P. falciparum
# [5] = tested on: malarial strain TM90-C2B (mefloquine, chloroquine, atovaquone, and pyrimethamine-resistant); assay: microbe, parasite or virus in culture; format: cell-based, P. falciparum; details: for RI: RI = EC50 TM90-C2B/EC50 W2
# Excerpt: Ideally, the RI of a compound should lie between 0.3 and 3.0 in order to avoid rapidly inducing resistance in the parasite. […]
# [6] = tested on: P. berghei sporozoites expressing luciferase; assay: in vitro liver stage activity, luciferase sporozoites infecting HEPG2 hepatoma cells; format: cell-based
# [7] = tested on: Pb-infected mice; assay: in vivo efficacy scouting assay against blood stages; set-up: species or system P. berghei; mice; details: for % inhibition on day 6 PE: Example 2: two mice, single 50 mg/kg oral dose in PEG400 on day 1 PE; for % Inhibition Day 6 PI: vs untreated animals
# Description: The screening involved a single oral 50 mg/kg dose 1 day post infection (PI) and an assessment of parasitemia on days 3 PI and 6 PI (Table 6).
# The screening was performed by treating two infected mice with a single 50 mg/kg oral dose of test compound suspended in PEG400 on day 1 postexposure (PE) followed by assessing parasitemia on days 3 and 6 PE.
# [8] = aqueous medium, pH 2, simulated gastric fluid, pH 2.0, read-out: Solubility pH 2.0
# [9] = aqueous medium, pH 6.5, aqueous buffer, pH 6.5, read-out: Solubility pH 6.5
# [10] = Plasmodium falciparum, read-out: EC50 W2 (nM)
# [11] = Plasmodium falciparum, TM90, read-out: EC50 TM90-C2B (nM)
# [12] = Plasmodium berghei, HEPG2 cells
# [13] = aqueous solution, pH 2, simulated gastric fluid, pH 2.0, read-out: Solubility pH 2.0
# [14] = aqueous solution, pH 6.5, aqueous buffer, pH 6.5, read-out: Solubility pH 6.5
# [15] = single oral 50 mg/kg dose 1 day PI
# [16] = aqueous solution (buffer not named), pH 2, simulated gastric fluid, pH 2.0, read-out: Solubility pH 2.0
# [17] = aqueous solution (buffer not named), pH 6.5, aqueous buffer, pH 6.5, read-out: Solubility pH 6.5
Compound,"solubility [1, 8]","solubility [1, 9]",chromatographic logD [2],"EC50 ([3]; J774, read-out: EC50 J774 (μM))","EC50 [4, 10]","EC50 [5, 11]",RI [5],"EC50 [6, 12]","% Inhibition Day 6 PI [7, 15]",other results
"COC(=O)c1c[nH]c2cc(CN3CCN(Cc4ccc5c(c4)OCO5)CC3)ccc2c1=O [Compound 8m, Methyl 7-((4-(benzo[d][1,3]dioxol-5-ylmethyl)piperazin-1-yl)methyl)-4-oxo-1,4-dihydroquinoline-3-carboxylate]",≥ 80 µM,≥ 80 µM,0.87,> 20 µM,157 nM,> 5740 nM,>36.6,,,
"COC(=O)c1c[nH]c2cc(N3CCN(c4ccc(OC)cc4)CC3)c(OC)cc2c1=O [Compound 8f, Methyl 6-methoxy-7-(4-(4-methoxyphenyl)piperazin-1-yl)-4-oxo-1,4-dihydroquinoline-3-carboxylate]",,,2.48,> 20 µM,42.9 nM,1980 nM,46.2,> 100000 pM,,"solubility [1, 13]: 60 to 79.9 µM; solubility [1, 14]: 20 to 39.9 µM"
"CCCCc1cc2c(=O)c(CC)c[nH]c2cc1OCCOc1ccccc1 [Compound 6ae, 6-Butyl-3-ethyl-7-(2-phenoxyethoxy)quinolin-4(1H)-one]",,,,,0.44 nM,1.92 nM,4.36,2650 pM,,"% inhibition on day 6 PE [7]: lack of significant parasitemia reduction; EC50 ([3]; J774, read-out: EC50 J774): 0.36 µM"
"COC(=O)c1c[nH]c2cc(CCN3CCN(Cc4ccc(OC)cc4)CC3)ccc2c1=O [Compound 8ae, Methyl 7-(2-(4-(4-methoxybenzyl)piperazin-1-yl)ethyl)-4-oxo-1,4-dihydroquinoline-3-carboxylate]",≥ 80 µM,≥ 80 µM,1.68,> 20 µM,11.6 nM,,>495,,,
"COC(=O)c1c[nH]c2cc(N3CCN(Cc4ccccc4)CC3)c(OC)cc2c1=O [Compound 8h, Methyl 7-(4-benzylpiperazin-1-yl)-6-methoxy-4-oxo-1,4-dihydroquinoline-3-carboxylate]",60 to 79.9 µM,40 to 59.9 µM,2.03,12.4 µM,63.5 nM,,,,,
"COC(=O)c1c[nH]c2cc(N3CCN(c4ccccc4)CC3)c(C)cc2c1=O [Compound 8c, Methyl 6-methyl-4-oxo-7-(4-phenylpiperazin-1-yl)-1,4-dihydroquinoline-3-carboxylate]",≥ 80 µM,40 to 59.9 µM,2.31,16.7 µM,45.5 nM,1110 nM,,,little to moderate protection,
"COC(=O)c1c[nH]c2cc(N3CCN(c4ccc(OC)cc4)CC3)ccc2c1=O [Compound 8e, Methyl 7-(4-(4-methoxyphenyl)piperazin-1-yl)-4-oxo-1,4-dihydroquinoline-3-carboxylate]",,,2.44,> 20 µM,7.76 nM,154 nM,19.8,,,"solubility [1, 13]: 40 to 59.9 µM; solubility [1, 14]: 20 to 39.9 µM"
"COC(=O)c1c[nH]c2cc(CCN3CCN(c4ccccc4)CC3)ccc2c1=O [Compound 8ac, Methyl 4-oxo-7-(2-(4-phenylpiperazin-1-yl)ethyl)-1,4-dihydroquinoline-3-carboxylate]",≥ 80 µM,≥ 80 µM,5.11,> 20 µM,25.6 nM,1500 nM,58.6,,,
"Cc1cc(=O)c2ccc(CN3CCN(c4ccc(F)cc4)CC3)cc2[nH]1 [Compound 8am, 7-((4-(4-Fluorophenyl)piperazin-1-yl)methyl)-2-methylquinolin-4(1H)-one]",,,2.44,> 20 µM,1220 nM,1450 nM,1.19,,,"solubility [1, 16]: ≥ 80 µM; solubility [1, 17]: ≥ 80 µM"
"O=c1c(Cl)c[nH]c2cc(CN3CCN(c4ccc(F)cc4)CC3)ccc12 [Compound 8al, 3-Chloro-7-((4-(4-fluorophenyl)piperazin-1-yl)methyl)quinolin-4(1H)-one]",,,2.57,> 20 µM,1060 nM,2290 nM,,,71.9%,"activities in these scout assays ([7]; single oral 50 mg/kg dose 1 day PI, result in words): excellent activities; solubility [1, 16]: ≥ 80 µM; solubility [1, 17]: 40 to 59.9 µM"
"COC(=O)c1c[nH]c2ccc(CN3CCN(c4ccc(F)cc4)CC3)cc2c1=O [Compound 8ah, Methyl 6-((4-(4-fluorophenyl)piperazin-1-yl)methyl)-4-oxo-1,4-dihydroquinoline-3-carboxylate]",,,2.17,> 20 µM,106 nM,2900 nM,27.4,,,"solubility [1, 16]: ≥ 80 µM; solubility [1, 17]: ≥ 80 µM"
"COC(=O)c1c[nH]c2cc(OCCCc3ccccc3)ccc2c1=O [Compound 6j, Methyl 4-Oxo-7-(3-phenylpropoxy)-1,4-dihydroquinoline-3-carboxylate]",,,,,0.711 nM,,,5260 pM,,% inhibition on day 6 PE [7]: 47.1%
"COC(=O)c1c[nH]c2cc(CN3CCN(Cc4ccc(OC)cc4)CC3)c(OC)cc2c1=O [Compound 8y, Methyl 6-methoxy-7-((4-(4-methoxybenzyl)piperazin-1-yl)methyl)-4-oxo-1,4-dihydroquinoline-3-carboxylate]",,,,> 20 µM,9.97 nM,2750 nM,,52400 pM,little to moderate protection,
"COC(=O)c1c[nH]c2cc(N3CCN(c4ccccc4)CC3)c(OC)cc2c1=O [Compound 8d, Methyl 6-methoxy-4-oxo-7-(4-phenylpiperazin-1-yl)-1,4-dihydroquinoline-3-carboxylate]",≥ 80 µM,1 to 19.9 µM,2.64,16.8 µM,37.2 nM,,,,little to moderate protection,
"COC(=O)c1c[nH]c2cc(N3CCN(Cc4ccc(OC)cc4)CC3)ccc2c1=O [Compound 8i, Methyl 7-(4-(4-methoxybenzyl)piperazin-1-yl)-4-oxo-1,4-dihydroquinoline-3-carboxylate]",≥ 80 µM,40 to 59.9 µM,2.08,,19.9 nM,1340 nM,67.3,,,
"COC(=O)c1c[nH]c2cc(OCCOc3ccccc3)c(Br)cc2c1=O [Compound 6z, Methyl 6-Bromo-4-oxo-7-(2-phenoxyethoxy)-1,4-dihydroquinoline-3-carboxylate]",,,,,4.47 nM,847 nM,,336 pM,,
"COC(=O)c1c[nH]c2cc(CN3CCN(Cc4ccc(OC)cc4)CC3)c(C)cc2c1=O [Compound 8s, Methyl 7-((4-(4-methoxybenzyl)piperazin-1-yl)methyl)-6-methyl-4-oxo-1,4-dihydroquinoline-3-carboxylate]",≥ 80 µM,≥ 80 µM,2.03,> 20 µM,2.4 nM,1020 nM,426,,little to moderate protection,
"CCCCc1ccc2[nH]cc(C(=O)OC)c(=O)c2c1 [Compound 6c, Methyl 6-Butyl-4-oxo-1,4-dihydroquinoline-3-carboxylate]",,,,,1.58 nM,222 nM,141,819 pM,,EC50 Pb (nM) ([6]; HEPG2 cells): subnanomolar
"COC(=O)c1c[nH]c2cc(CN3CCN(c4ccc(OC)cc4)CC3)ccc2c1=O [Compound 8n, Methyl 7-((4-(4-methoxyphenyl)piperazin-1-yl)methyl)-4-oxo-1,4-dihydroquinoline-3-carboxylate]",,,2.11,,3.56 nM,222 nM,,123 pM,little to moderate protection,"EC50 ([6]; Plasmodium berghei, HepG2, text values printed in pM): 123 pM; solubility [1, 13]: ≥ 80 µM; solubility [1, 14]: 40 to 59.9 µM"
"Methyl 7-(4-benzylpiperazin-1-yl)-4-oxo-1,4-dihydroquinoline-3-carboxylate [Compound 8b]",,,,,,,1.31,,,"EC50 ([6]; HEPG2 cells): 5820 pM; EC50 ([4]; blood stage in vitro, strain W2, read-out: EC50 W2): 328 nM; EC50 ([5]; blood stage in vitro, atovaquone-resistant strain TM90-C2B, read-out: EC50 TM90-C2B): 430 nM"
